Among the data in ChEMBL document CHEMBL1152219, “Synthesis and use of sulfonamide-, sulfoxide-, or sulfone-containing aminoglycoside-CoA bisubstrates as mechanistic probes for aminoglycoside N-6'-acetyltransferase” (Bioorg Med Chem Lett, 2008) are Ki values, retold here.

This experiment in a line: Inhibition of aminoglycoside N-6'-acetyltransferase Ii.

For orientation: Ki means the equilibrium dissociation constant of an inhibitor or competing ligand from its target.

`CC(C)(COP(=O)(O)OP(=O)(O)OC[C@H]1O[C@@H](n2cnc3c(N)ncnc32)[C@H](O)[C@@H]1OP(=O)(O)O)[C@@H](O)C(=O)NCCC(=O)NCCS(=O)(=O)CC(=O)NC[C@H]1O[C@H](O[C@H]2[C@H](O)[C@@H](O)[C@H](N)C[C@@H]2N)[C@H](N)[C@@H](O)[C@@H]1O` showed an inhibition constant Ki of 270 nM. `CC(C)(COP(=O)(O)OP(=O)(O)OC[C@H]1O[C@@H](n2cnc3c(N)ncnc32)[C@H](O)[C@@H]1OP(=O)(O)O)[C@@H](O)C(=O)NCCC(=O)NCCSCCC(=O)NC[C@H]1O[C@H](O[C@H]2[C@H](O)[C@@H](O)[C@H](N)C[C@@H]2N)[C@H](N)[C@@H](O)[C@@H]1O` returned a Ki of 43 nM. Under `CC(C)(COP(=O)(O)OP(=O)(O)OC[C@H]1O[C@@H](n2cnc3c(N)ncnc32)[C@H](O)[C@@H]1OP(=O)(O)O)[C@@H](O)C(=O)NCCC(=O)NCCS(=O)(=O)CCC(=O)NC[C@H]1O[C@H](O[C@H]2[C@H](O)[C@@H](O)[C@H](N)C[C@@H]2N)[C@H](N)[C@@H](O)[C@@H]1O` stands 90 nM; under `CC(C)(COP(=O)(O)OP(=O)(O)OC[C@H]1O[C@@H](n2cnc3c(N)ncnc32)[C@H](O)[C@@H]1OP(=O)(O)O)[C@@H](O)C(=O)NCCC(=O)NCCSCCS(=O)(=O)NC[C@H]1O[C@H](O[C@H]2[C@H](O)[C@@H](O)[C@H](N)C[C@@H]2N)[C@H](N)[C@@H](O)[C@@H]1O`, 1600 nM. As to `CC(C)(COP(=O)(O)OP(=O)(O)OC[C@H]1O[C@@H](n2cnc3c(N)ncnc32)[C@H](O)[C@@H]1OP(=O)(O)O)[C@@H](O)C(=O)NCCC(=O)NCC[S+]([O-])CC(=O)NC[C@H]1O[C@H](O[C@H]2[C@H](O)[C@@H](O)[C@H](N)C[C@@H]2N)[C@H](N)[C@@H](O)[C@@H]1O` (some centres not stated), the Ki was determined as 60 nM. Turning to `CC(C)(COP(=O)(O)OP(=O)(O)OC[C@H]1O[C@@H](n2cnc3c(N)ncnc32)[C@H](O)[C@@H]1OP(=O)(O)O)[C@@H](O)C(=O)NCCC(=O)NCC[S+]([O-])CCC(=O)NC[C@H]1O[C@H](O[C@H]2[C@H](O)[C@@H](O)[C@H](N)C[C@@H]2N)[C@H](N)[C@@H](O)[C@@H]1O` (some centres not stated), affinity was put at a Ki of 2000 nM. The molecule `CC(C)(COP(=O)(O)OP(=O)(O)OC[C@H]1O[C@@H](n2cnc3c(N)ncnc32)[C@H](O)[C@@H]1OP(=O)(O)O)[C@@H](O)C(=O)NCCC(=O)NCCSCC(=O)NC[C@H]1O[C@H](O[C@H]2[C@H](O)[C@@H](O)[C@H](N)C[C@@H]2N)[C@H](N)[C@@H](O)[C@@H]1O` registered a Ki of 76 nM.
